Reference: US20020082291A1, “NEW USE OF TAXOID DERIVATIVES” (priority 1999, published 2002)

Tested on: mammary adenocarcinoma MA17/A
Test: Oral antitumor efficacy and toxicity against early stage mammary adenocarcinoma MA17/A grafted subcutaneously in mice
Type: in vivo
Conditions: for log cell kill: tumor doubling time 1.3 days
Method: Formulation II: 0.2 mg/ml of the compound of formula (la) was mixed in a solution comprising 5% ethanol, 5% Polysorbate 80, and 90% of an aqueous 5% glucose solution.
15 female C3H/HeN mice, each weighing approximately 20 g, were each administered Formulation II orally in a dose of 20.6 mg.kg^−1 per administration per mouse,12.8, 8.4 and 5.5 each day for 5 days.
Animals: The animals subjected to the experiment, generally mice, were subcutaneously grafted bilaterally with 30 to 60 mg of a mammary tumor fragment (adenocarcinoma MA17/A) on day 0. The animals bearing tumors were mixed before being assigned to the various treatment and control groups. Chemotherapy generally began from 3 to 7 days after grafting, depending on the type of tumour, and the animals were observed every day. The different animal groups were weighed 3 or 4 times a week until the maximum weight loss was attained, and the groups were then weighed at least once a week until the end of the trial.
Efficacy: The efficacy of the new pharmaceutical form was evaluated by:
the tumor growth inhibitor (T/C)
The T/C value in percent is an indication of antitumor effectiveness: [formula]
According to NCI standards, a T/C<42% is the minimal level to declare activity. A T/C<10% is considered to indicate high antitumor activity and is the level used by NCI to justify further development (Decision Network-2 level, DN-2).
The T/C value can be converted to an arbitrary activity rating according to the NCI criteria:
and quantified by the log cell kill which is determined by the following formula:
log10 cells killed=T−C(days)/3.32×Td
in which T−C represents the time in days for the tumors of the treated group (T) and the tumors of the non-treated group (C) to reach a predetermined value (750 mg for example). This method is described in T. H. CORBETT et al., Cancer, 40, 2660-2680 (1977); F.M. SCHABEL et al., Cancer Drug Development, Part B. Methods in Cancer Research, 17, 3-51, New York Academic Press Inc. (1979), the disclosure of which is incorporated by reference herein. A product is considered to be active if log10 cells killed is greater than or equal to 0.7. A product is considered to be very active if log10 cells killed is greater than 2.8.

[1] = p.o. 5.5 mg/kg/dose, days 3 to 7, total dose 27.5 mg/kg
[2] = p.o. 8.4 mg/kg/dose, days 3 to 7, total dose 42.0 mg/kg
[3] = p.o. 12.8 mg/kg/dose, days 3 to 7, total dose 64.0 mg/kg

Question: For `CO[C@H]1C(=O)[C@]2(C)[C@@H](OC)C[C@H]3OC[C@@]3(OC(C)=O)[C@H]2[C@H](OC(=O)c2ccccc2)[C@]2(O)C[C@H](OC(=O)[C@H](O)[C@@H](NC(=O)OC(C)(C)C)c3ccccc3)C(C)=C1C2(C)C` [Product of formula IA, 4α-acetoxy-2α-benzoyloxy-5β,20-epoxy-1β-hydroxy-7β,10β-dimethoxy-9-oxo-11-taxen-13α-yl (2R, 3S)-3tert-butoxycarbonylamino-2-hydroxy-3-phenylpropionate], which Comments [1] is on record?
Answer: The Comments was “Inactive”.

Question: What about the “Drug death (days or death)” value [1] of the same compound?
Answer: The value was 0/5.

Question: What about the T-C [1] of the same compound?
Answer: The T-C was 2.3 days.

Question: What about the “Time for median tumor to reach 750 mg” value [1] of the same compound?
Answer: The value was 14.4 days.

Question: And the “Average body weight change in % per mouse post last treatment (day)” value (p.o. 5.5 mg/kg/dose, days 3 to 7, total dose 27.5 mg/kg, day 8)?
Answer: The value was “+0.2(8) %”.

Question: And the “Median tumor weight in mg on day 12 (range)” value (“Median tumor weight in mg” below) [1]?
Answer: Its value is 271(107-432) mg.

Question: And the “T/C in % day 12” value [1]?
Answer: Its value is 38%.

Question: And the log cell kill [1]?
Answer: The log cell kill was 0.5.

Question: And the Comments [2]?
Answer: The Comments was “Active”.

Question: And the “Drug death (days or death)” value [2]?
Answer: The value was 0/5.

Question: And the T-C [2]?
Answer: Its T-C is 6.1 days.

Question: And the “Time for median tumor to reach 750 mg” value [2]?
Answer: Its value is 18.2 days.

Question: And the “Average body weight change in % per mouse post last treatment (day)” value (p.o. 8.4 mg/kg/dose, days 3 to 7, total dose 42.0 mg/kg, day 9)?
Answer: The value was −11.0(9) %.

Question: What about the “Median tumor weight in mg” value [2] of the same compound?
Answer: The value was 0(0-268) mg.

Question: What about the “T/C in % day 12” value [2] of the same compound?
Answer: The value was 0%.

Question: And the log cell kill [2]?
Answer: Its log cell kill is 1.4.

Question: And the Comments [3]?
Answer: Its Comments is “HNTD”.

Question: And the “Drug death (days or death)” value [3]?
Answer: Its value is 0/5.

Question: What about the T-C [3] of the same compound?
Answer: The T-C was 13.8 days.

Question: And the “Time for median tumor to reach 750 mg” value [3]?
Answer: Its value is 25.9 days.

Question: What about the “Average body weight change in % per mouse post last treatment (day)” value (p.o. 12.8 mg/kg/dose, days 3 to 7, total dose 64.0 mg/kg, day 10) of the same compound?
Answer: The value was −17.9(10) %.

Question: And the “Median tumor weight in mg” value [3]?
Answer: Its value is 0(0-0) mg.

Question: What about the “T/C in % day 12” value [3] of the same compound?
Answer: The value was 0%.

Question: What about the log cell kill [3] of the same compound?
Answer: The log cell kill was 3.2.

Question: And the Comments (p.o. 20.6 mg/kg/dose, days 3 to 7, total dose 103.0 mg/kg)?
Answer: Its Comments is “Toxic”.

Question: And the “Drug death (days or death)” value (p.o. 0.2 ml, 20.6 mg/kg/dose, days 3 to 7, total dose 103.0 mg/kg, female C3H/HeN mice)?
Answer: Its value is 5/5(7,2d8,10,11).
